± gives the standard deviation of the averaged measurements.
Assays:
HL-60 [1] = assay: cell viability (% survival relative to DMSO control); higher = less cytotoxic; conditions: 72 h
Procedure, shortened: (§1)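 HL-60 cells in RPMI 1640 with 10% FBS were rescreened against the full library on 384-well plates at five tenfold concentrations, 1–10,000 nM, in duplicate. Each screen was run with DMSO or 100 nM of one of three metabolic inhibitors, for 72 h at 37 °C, 5% CO2. Viability was read by CellTiter-Glo and normalised to DMSO and 10 μM proteasome-inhibitor wells. Where given, area under the curve came from four-parameter log-logistic fits (drc, PharmacoGx).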

HL-60 [2] = assay: area under dose-response curve (viability, 1 nM-10 uM) (fraction (0-1)); higher = more sensitive; conditions: 72 h
Procedure, shortened: as §1

[3] = 0.001 µM, co-treatment: AZD3965 100 nM
[4] = 0.001 µM, co-treatment: DMSO vehicle
[5] = 0.001 µM, co-treatment: GSK2194069 100 nM
[6] = 0.001 µM, co-treatment: pictilisib 100 nM
[7] = 0.01 µM, co-treatment: AZD3965 100 nM
[8] = 0.01 µM, co-treatment: DMSO vehicle
[9] = 0.01 µM, co-treatment: GSK2194069 100 nM
[10] = 0.01 µM, co-treatment: pictilisib 100 nM
[11] = 0.1 µM, co-treatment: AZD3965 100 nM
[12] = 0.1 µM, co-treatment: DMSO vehicle
[13] = 0.1 µM, co-treatment: GSK2194069 100 nM
[14] = 0.1 µM, co-treatment: pictilisib 100 nM
[15] = 1 µM, co-treatment: AZD3965 100 nM
[16] = 1 µM, co-treatment: DMSO vehicle
[17] = 1 µM, co-treatment: GSK2194069 100 nM
[18] = 1 µM, co-treatment: pictilisib 100 nM
[19] = 10 µM, co-treatment: AZD3965 100 nM
[20] = 10 µM, co-treatment: DMSO vehicle
[21] = 10 µM, co-treatment: GSK2194069 100 nM
[22] = 10 µM, co-treatment: pictilisib 100 nM
[23] = co-treatment: GSK2194069 100 nM
[24] = co-treatment: pictilisib 100 nM

Compound	cell viability (HL-60 [1]; [3]) [%]	cell viability (HL-60 [1]; [4]) [%]	cell viability (HL-60 [1]; [5]) [%]	cell viability (HL-60 [1]; [6]) [%]	cell viability (HL-60 [1]; [7]) [%]	cell viability (HL-60 [1]; [8]) [%]	cell viability (HL-60 [1]; [9]) [%]	cell viability (HL-60 [1]; [10]) [%]	cell viability (HL-60 [1]; [11]) [%]	cell viability (HL-60 [1]; [12]) [%]	cell viability (HL-60 [1]; [13]) [%]	cell viability (HL-60 [1]; [14]) [%]	cell viability (HL-60 [1]; [15]) [%]	cell viability (HL-60 [1]; [16]) [%]	cell viability (HL-60 [1]; [17]) [%]	cell viability (HL-60 [1]; [18]) [%]	cell viability (HL-60 [1]; [19]) [%]	cell viability (HL-60 [1]; [20]) [%]	cell viability (HL-60 [1]; [21]) [%]	cell viability (HL-60 [1]; [22]) [%]	area under dose-response curve (HL-60 [2]; co-treatment: AZD3965 100 nM)	area under dose-response curve (HL-60 [2]; co-treatment: DMSO vehicle)	area under dose-response curve (HL-60 [2]; [23])	area under dose-response curve (HL-60 [2]; [24])
Cc1c(Cl)cccc1S(=O)(=O)Nc1nc(CC(=O)N2CCN(C)CC2)cs1 [BVT-2733]	101.68 ± 0.086	101 ± 3	103.6 ± 0.74	96.1 ± 7.3	102 ± 3.8	103.3 ± 0.6	105 ± 6.3	99.8 ± 8.6	97.2 ± 1.6	98.9 ± 2	97 ± 2.4	96.6 ± 2.2	98.13 ± 0.69	98.1 ± 1.3	88.4 ± 7.7	87.2 ± 13	99.4 ± 1.7	98.8 ± 1.6	99.66 ± 0.36	97.9 ± 1.1	< 0.0301	< 0.0301	< 0.0301	< 0.0301
CCc1oc2ccccc2c1C(=O)c1cc(Br)c(O)c(Br)c1 [Benzbromarone]	98.7 ± 1.8	101 ± 1.1	95.9 ± 1.3	93.8 ± 3.1	99.3 ± 1.6	99 ± 2.1	104 ± 4.5	99.8 ± 1	98.9 ± 1.8	101 ± 4	105 ± 9.6	97.7 ± 4.2	102 ± 2.5	103 ± 2.3	102.3 ± 0.5	118 ± 10	99.81 ± 0.45	101.1 ± 0.99	97.85 ± 0.96	98 ± 12	< 0.0301	< 0.0301	< 0.0301	< 0.0301
CCOC(=O)c1sc(NC(=O)c2ccco2)c(SC#N)c1C [CBR-5884]	107.6 ± 1	104 ± 1.5	97.6 ± 3.5	107 ± 3.1	103 ± 1.6	102 ± 2.5	98.31 ± 0.17	101 ± 3.1	93.2 ± 23	98.9 ± 5.8	90.6 ± 12	81.8 ± 26	106 ± 3.2	105 ± 2.1	98.2 ± 3.5	101 ± 11	102 ± 6.6	100.8 ± 0.41	103 ± 3.9	88 ± 4.2	< 0.0301	< 0.0301	< 0.0301	< 0.0301
CCCCCOC(=O)Nc1nc(=O)n([C@@H]2O[C@H](C)[C@@H](O)[C@H]2O)cc1F [Capecitabine]	103 ± 7.9	98.8 ± 8.1	103 ± 7	104 ± 3.5	95.72 ± 0.16	100.39 ± 0.085	95.88 ± 0.56	96.7 ± 12	109 ± 4.4	106 ± 3	99.36 ± 0.11	95.4 ± 13	102 ± 2.5	99.7 ± 1.6	102 ± 1.4	108 ± 4.2	96.6 ± 4.8	98.7 ± 3	95.6 ± 11	113 ± 11	< 0.0301	< 0.0301	< 0.0301	< 0.0301
Cc1ccc(-c2cc(C(F)(F)F)nn2-c2ccc(S(N)(=O)=O)cc2)cc1 [Celecoxib]	104 ± 1.8	103 ± 1.3	101 ± 1.5	102 ± 3.9	99.7 ± 2.2	90.4 ± 19	87.7 ± 19	98.6 ± 12	101 ± 2.7	100 ± 3.8	97.67 ± 0.35	96.2 ± 5.6	106 ± 7.8	105 ± 8.1	103 ± 6.2	122 ± 8.5	114.8 ± 0.68	110.57 ± 0.073	104 ± 3	125 ± 10	< 0.0301	< 0.0301	< 0.0301	< 0.0301
O=c1c(-c2ccc(O)cc2)coc2cc(O[C@@H]3O[C@H](CO)[C@@H](O)[C@H](O)[C@H]3O)ccc12 [Daidzin]	94.4 ± 7.1	96.2 ± 3.1	96.5 ± 3.9	94 ± 11	104 ± 6.6	102 ± 5.1	105 ± 2.1	103 ± 11	102 ± 9.7	101.7 ± 0.79	102 ± 3.5	105 ± 3.9	84.8 ± 30	98.92 ± 0.91	98.7 ± 2.4	67.6 ± 43	107 ± 9.1	99.7 ± 1.7	101 ± 11	98.5 ± 12	< 0.0301	< 0.0301	< 0.0301	< 0.0301
C[C@H]1c2cccc(O)c2C(=O)C2C(=O)[C@]3(O)C(=O)C(C(N)=O)C(=O)[C@@H](N(C)C)[C@@H]3[C@@H](O)[C@@H]21 (some centres not stated) [Doxycycline]	92.6 ± 9.1	100 ± 2.7	93.3 ± 7.2	91.7 ± 6.2	97.9 ± 4.6	101 ± 4.3	96 ± 4.9	98.48 ± 0.73	99.6 ± 4.2	104 ± 2	99.5 ± 5.7	99.2 ± 1.6	96.7 ± 8.5	102 ± 1.5	94.8 ± 6.5	102 ± 3.8	113 ± 5.6	114.8 ± 0.59	108.3 ± 0.83	96.9 ± 6.5	< 0.0301	< 0.0301	< 0.0301	< 0.0301
OC[C@H]1NC[C@H](O)[C@@H](O)[C@@H]1O [Duvoglustat]	96.9 ± 6.2	99.3 ± 1.8	97.4 ± 5.2	97.9 ± 10	99.7 ± 3.4	95.3 ± 2.3	92.82 ± 0.14	108 ± 14	96.3 ± 3.1	102 ± 3.9	107 ± 1.9	108 ± 8.1	96.5 ± 7.2	102 ± 2.6	105 ± 8.7	109 ± 1.7	94 ± 10	101.5 ± 0.68	95.8 ± 6.5	106 ± 4.1	< 0.0301	< 0.0301	< 0.0301	< 0.0301

— the supplement of paper PMC8671470
